The values that follow come from patent publication US10315994B2, “Photostable compounds, absorbing compounds and uses thereof” (Commonwealth Scientific and Industrial Research Organisation, priority 2015, dated 2019).

A short description of data set [1]: UV/visible absorbance characteristics (λmax, λcrit, ε, E 1%,1 cm). The data set is classed as physicochemical.
Data set [2] can be described thus: Photostability of thin films exposed to xenon arc lamp. The class given is physicochemical. As to conditions: for % λmax (% of original absorbance remaining): absorbance at λmax, irradiated vs unirradiated; for % λmax (% of original absorbance remaining) / % abs total (% of original absorbance remaining): xenon arc lamp 1 hour, thin film; for Photostability, % remaining after irradiation: exposure to the lamp for 1 h; for % abs total (% of original absorbance remaining): sum of absorbance 290-400 nm. The procedure: 1 mL of a 3% solution of the test compound (30 mg of test compound in 1 mL solvent) was prepared in a solvent mix made up of 50% EtOH and 25% capric/caprylic triglyceride and 25% C12-C15 alkyl benzoate. 50 μL of this solution (containing 1.5 mg of test compound) was added carefully to the centre of a glass microscope slide and the volatile components left to evaporate in the dark for at least 3 hours to give a liquid film. […] The irradiation was performed in a fume cupboard where the air flow was sufficient to keep sample T<30° C. One hour's exposure represented a calculated radiation dose (using meter) of approximately 100 MED.
In order to calculate the photostability of the test compounds, the exposed slides were placed in a beaker and rinsed with 2×5 mL EtOH, 1×5 mL MeOH. The combined washings were then added to a 100 mL volumetric flask and made up to 100 mL total volume with methanol. The UV absorbance was then measured in a 10 mm cuvette. The percent stability is measured as the ratio of absorbance at λmax for the irradiated sample compared to the unirradiated sample. As a further measure, a comparison of the sum of the absorbance in the 290-400 nm range was calculated.
The thin films are a good surrogate for testing the stability of a candidate in a sunscreen formulation as they use cosmetic emollients as solvent and are formed at cosmetically relevant concentrations.

Where [3] appears, read: Table 1, in M-1 cm-1 (unit assumed).
[4] abbreviates: Table 5, in M-1 cm-1 (unit assumed).

With `CC1(C)C=CN(c2ccccc2)C=C1C(=O)C(F)(F)F` [Compound 105], in data set [1] (Table 1), the “E (1%, 1 cm)” value amounted to 263; the λcrit turned out to be 391 nm; the λmax is 384 nm. The ε in data set [1] (setting [3]) is 7393.
Take `CC1(C)CCN(C(C)(C)C)C=C1C(=O)C(F)F`: in data set [2] (Table 5), the “Photostability (%)” value came out at 43%. In data set [1] (Table 5), the “E (1%, 1 cm)” value came to 1371; the λcrit amounted to 331 nm; the λmax is listed as 313 nm. Also, in data set [1] (setting [4]), the ε is recorded as 30868.
For the molecule `CC1(C)CCN(c2ccc(Cc3ccc(N4C=C(C(=O)C(F)(F)F)C(C)(C)CC4)cc3)cc2)C=C1C(=O)C(F)(F)F` [Compound 108], in data set [1] (Table 1), the “E (1%, 1 cm)” value stood at 1051; the λcrit is reported as 363 nm; the λmax is listed as 341 nm. This molecule registered a ε in data set [1] (setting [3]) of 60770.
`CCCCC(CC)CN(c1ccc(C(=O)C2=CN(C(C)(C)C)CCC2(C)C)cc1)c1ccc(C(=O)C2=CN(C(C)(C)C)CCC2(C)C)cc1` (stereo not drawn) [Compound 136]: in data set [2], the “% λmax (% of original absorbance remaining)” value was 49%; the “Photostability, % remaining after irradiation” value (from here on “Photostability, % remaining”) turned out to be 49%; the “% abs total (% of original absorbance remaining)” value was found to be 56%. The same molecule came in with a λmax in data set [1] (Table 1) of approximately 340 nm.
In the case of `CC1(C)CCN(C(C)(C)C)C=C1C(=O)C(F)(F)C(F)(F)C(F)(F)C(=O)C1=CN(C(C)(C)C)CCC1(C)C` [drawing 123], in data set [1] (Table 5), the “E (1%, 1 cm)” value was 1177; the λcrit was found to be 337 nm; the λmax came to 317 nm. This molecule also displayed a ε in data set [1] (setting [4]) of 63346.
Turning to `CC(C)(C)Oc1ccc(C(=O)C2=CN(C(C)(C)C)CCC2(C)C)cc1` [Compound 88], in data set [2] (Table 7, benzoyl derivatives), the “Photostability (%)” value came to 38%.
Same read-out and setting: the value for `CC1(C)CCN(C(C)(C)C)C=C1C(=O)c1ccc(Br)cc1` [Compound 76] was 85%.
In the case of `CCCCCCCC(=O)C1=CN(C(C)(C)C)CCC1(C)C` [319, 2], in data set [2], the “% λmax (% of original absorbance remaining)” value is given as 45%; the “Photostability, % remaining” value is on record as “over 40%”; the “% abs total (% of original absorbance remaining)” value is 47%.
In the case of `CCC(=O)C1=CN(CC(C)C)CCC1(C)C` [Compound 1], in data set [2], the “% λmax (% of original absorbance remaining)” value is listed as 21%; the “Photostability, % remaining” value was 21%; the “% abs total (% of original absorbance remaining)” value was 24%.
Consider `CCCCC(CC)CN(c1ccc(C(=O)C2=CN(C(C)(C)C)CCC2(C)C)cc1)c1ccc(C(=O)C2=CN(C(C)(C)C)CCC2(C)C)cc1` (stereo not drawn) [drawing 95, (((2-ethylhexyl)azanediyl)bis(4,1-phenylene))bis((1-(tert-butyl)-4,4-dimethyl-1,4,5,6-tetrahydropyridin-3-yl)methanone)], for which, in data set [1] (synthesis section), the “UV λmax” value amounted to 316 nm and the ε worked out at 41598 M⁻¹ cm⁻¹.
As for `CC1(C)CCN(c2ccc(Oc3ccc(N4C=C(C(=O)C(F)(F)F)C(C)(C)CC4)cc3)cc2)C=C1C(=O)C(F)(F)F` [Compound 111], in data set [1] (Table 1), the “E (1%, 1 cm)” value amounted to 923; the λcrit stood at 365 nm; the λmax came to 343 nm. This molecule showed a ε in data set [1] (setting [3]) of 53548.
Turning to `Cc1ccc(N2C=C(C(=O)C(F)(F)F)C(C)(C)CC2)cc1N1C=C(C(=O)C(F)(F)F)C(C)(C)CC1`, in data set [1] (Table 5), the “E (1%, 1 cm)” value came to 1315; the λcrit is reported as 358 nm; the λmax is given as 339 nm. In addition, the ε in data set [1] (setting [4]) is 66020.
With `CC1(C)CCN(C(C)(C)C)C=C1C(=O)c1ccncc1` [Compound 58], in data set [2] (Table 7, benzoyl derivatives), the “Photostability (%)” value is given as 78%.
As to `CC1(C)CCN(C(C)(C)C)C=C1C(=O)c1c(F)c(F)c(F)c(F)c1F` [Compound 185], the λmax in data set [1] (Table 7, benzoyl derivatives) came to 315 nm.
Take `CN(C)c1ccc(C(=O)C2=CN(C(C)(C)C)CCC2(C)C)cc1` [Compound 86]: the “Photostability (%)” value in data set [2] (Table 7, benzoyl derivatives) was found to be 30%. For the same molecule, the “Photostability, % remaining” value in data set [2] is 30%.
For the molecule `CC(C)CN1C=C(C(=O)c2ccccc2)C(C)(C)CC1` [Compound 11], the “Photostability (%)” value in data set [2] (Table 7, benzoyl derivatives) is given as 59%. In data set [2], the “% λmax (% of original absorbance remaining)” value is recorded as 59%; the “Photostability, % remaining” value was determined as 59%; the “% abs total (% of original absorbance remaining)” value is recorded as 63%.
With `CCCCCCC(=O)C1=CN(c2ccc(N3C=C(C(=O)CCCCCC)C(C)(C)CC3)cc2)CCC1(C)C` [1,1′-(1,4-phenylenebis(4,4-dimethyl-1,4,5,6-tetrahydropyridine-1,3-diyl))bis(heptan-1-one)], in data set [1] (synthesis section), the “UV λmax” value came out at 359 nm and the ε came to 70222 M⁻¹ cm⁻¹.
With `CC(C)CN1C=C(C(=O)C(F)(F)F)C(C)(C)CC1` [Compound 146], in data set [2], the “% λmax (% of original absorbance remaining)” value is given as 89% and the “% abs total (% of original absorbance remaining)” value was found to be 88%.
